Source: patent publication US20100160339A1, “TREATING PANCREATITIS” (MAYO FOUNDATION FOR MEDICAL EDUCATION AND RESEARCH, priority 2007, published 2010)
“Also recorded” adds a separate entry of the source.

Key:
pancreatic acini [1] = experiment: Basal relocation of cortactin and actin in suprastimulated acini (immunofluorescence); assay type: cell-based, mice; conditions: 10 nM CCK
Description: (§1) Acini were harvested in a buffer containing 20 mM HEPES (pH 7.4), 120 mM NaCl, 5 mM KCl, 1 mM MgCl2, 1 mM CaCl2, 10 mM glucose, 10 mM sodium pyruvate, 0.1% bovine serum albumin, and 0.01% soybean trypsin inhibitor with 100 units/mL collagenase, as described elsewhere (Torgerson and McNiven, J. […] Viability prior to use was >95% by trypan blue exclusion. The harvested acini were used as described elsewhere (Torgerson and McNiven, J. Cell Sci., 111 (Pt. 19):2911-22 (1998)).
(§2) Acini were plated on plain glass coverslips as described elsewhere (Torgerson and McNiven, J. Cell Sci., 111 (Pt. 19):2911-22 (1998)), fixed with 2% paraformaldehyde, and permeabilized with 0.6% Triton X-100. The acini were then blocked with 5% normal goat serum followed by incubation with the primary antibodies (4F11 diluted 1/1000, SC-18 diluted 1/300, or anti-Yes diluted 1/1000) for one hour at room temperature followed by washing and incubation with secondary antibodies ( 1/500) with or without rhodamine phalloidin (100 nM) for 30 minutes. The acini were then washed and mounted using Prolong gold. Acini with 6-12 cells were randomly chosen for imaging. The number of blebs was counted along with the number of cells, and expressed as bleb number per 100 cells. The final number expressed as mean±SEM was from at least three different experiments. […]

pancreatic acini [2] = experiment: Suprastimulation-induced blebbing of acini (bleb number per 100 cells); assay type: cell-based, mice; conditions: 10 nM CCK, 94.2±4.1% without inhibitor, mean±SEM
Description: as §1, §2

Src-cortactin complex = experiment: Dissociation of the Src-cortactin complex after 10 nM CCK (Src immunoprecipitation, blot for cortactin); assay type: cell-based, mice; conditions: 2 minutes, PP2 pre-incubation
Description: Acini were harvested in a buffer containing 20 mM HEPES (pH 7.4), 120 mM NaCl, 5 mM KCl, 1 mM MgCl2, 1 mM CaCl2, 10 mM glucose, 10 mM sodium pyruvate, 0.1% bovine serum albumin, and 0.01% soybean trypsin inhibitor with 100 units/mL collagenase, as described elsewhere (Torgerson and McNiven, J. Cell Sci., 111 (Pt. 19):2911-22 (1998)) were filtered through a 70 μm mesh and kept at 37° C. for two hours before use during which time these were pre-incubated with 20 μM of inhibitors (PP2 or SU6656), if necessary. Viability prior to use was >95% by trypan blue exclusion. The harvested acini were used as described elsewhere (Torgerson and McNiven, J. Cell Sci., 111 (Pt. 19):2911-22 (1998)).
(§3) Acini or tissue were homogenized in a buffer containing 50 mM Tris (pH 7.2), 150 mM NaCl, 0.5 mM EDTA, 1 mM EGTA, 2 mM DTT, 1 mM sodium orthovanadate, 25 mM NaF, and 1% NP-40, using a protease inhibitor cocktail (Complete; Cat. # 1873580; Roche) to prevent proteolysis. […] After Western blotting using appropriate protocols and dilutions of antibodies ( 1/100000 for AB3, 1/1000 for 4G10, 1/500 for SC-18, 1/1000 for PY416, 1/5000 for Yes, 1/200 for H-12 (c-Src), 1/200 for fyn, and 1/200 for Lyn) as recommended by the manufacturer, band intensity was quantified using Adobe Photoshop 6.0, and backgrounds were subtracted for the appropriate lanes. […] Quantification was performed from two or more experiments. […]

[3] = test system: suprastimulation-induced pancreatitis; experiment: Caerulein-induced pancreatitis in vivo; design: species or system mice
Text: Male 100-120 gm Sprauge Dawley (Harlan Laboratories, Indianapolis, Ind.) mice that were housed and fed under standard conditions were used. Caerulein, the CCK analog, was obtained from Research Plus (Bayonne, N.J.). Antibodies to phosphotyrosine (4G10) and cortactin (4F11) antibodies were obtained from Upstate (Charlottesville, Va.). Pan Src antibody (SC-18), Fyn (SC-16) and c-Src antibody H-12 were obtained from Santa Cruz (Santa Cruz, Calif.), and active Src (PY416), Yes and Lyn antibodies were obtained from Transduction Labs (Lexington, Ky.). Polyclonal antibody to cortactin (AB3) was produced as described elsewhere (Cao et al., Mol. Cell Biol., 23(6):2162-2170 (2003)). Secondary antibodies for immunofluorescence (Alexa 488 and Alexa 594) and Prolong gold were obtained from Invitrogen Corporation (Carlsbad, Calif.). Secondary antibodies for western blotting (goat anti-rabbit and goat anti-mouse HRP) were obtained from Affinity Bioreagents (Golden, Colo.). Collagenase type IV was obtained from Worthington Biochemical Corporation (Lakewood, N.J.). PP2 and SU6656 were obtained from Calbiochem (San Diego, Calif.) and were dissolved as a 1000× stock in DMSO. All other reagents were purchased from Sigma.
Animals (6 animals in each group) were given a single intraperitoneal injection of saline (control) or caerulein (20 μg/kg) in saline as described elsewhere (Bhagat et al., Gastroenterology, 122(1): 156-165 (2002)). After 6 hours, blood and tissue samples were harvested and frozen or fixed in 4% formaldehyde. When used, PP2 was dissolved in DMSO and given at a dose of 3 mg/kg in a 0.1-mL volume intraperitoneally 30 minutes before caerulein. Animals pretreated with vehicle were given DMSO only.
Five μm sections of paraffin-embedded pancreas and lung were stained with hematoxylin/eosin (H&E). For immunohistochemistry of pancreas, 5 μm sections were made from OCT embedded tissue, fixed with 4% paraformaldehyde, and immunostained as described herein. Serum amylase activity was measured colorimetrically using the Phadebas assay (Pharmacia Diagnostics, Portage, Mich.). Edema was measured by subtracting the dry weight from the wet weight and presented as a percentage of wet weight.
The results reported represent the mean±SEM of values obtained from three or more experiments and compared using Student's t test when the data consisted of only two groups or ANOVA when comparing three or more groups. If ANOVA indicated a significant difference, the data were analyzed by using Tukey's method as a post-hoc test for the difference between groups. A p value of 0.05 was considered significant.

Src = experiment: Cortactin tyrosine phosphorylation in pancreatic acini suprastimulated with 10 nM CCK (immunoprecipitation, 4G10 western blot); assay type: cell-based, mice
Description: as §1, §3

Row | Compound | basal relocation of cortactin and actin (pancreatic acini [1]; PP2 20 μM) | blebbing (pancreatic acini [2]; PP2 20 μM) | dissociation of the Src-cortactin complex (Src-cortactin complex) | cortactin phosphorylation in pancreas in vivo ([3]; 3 mg/kg PP2 intraperitoneally 30 minutes before 20 μg/kg caerulein, preliminary data) | increase in serum amylase over controls ([3]; PP2 3 mg/kg ip 30 minutes before caerulein 20 μg/kg, 6 hours, CER+Veh 4.8±0.5 fold, p <0.02) | pancreatic edema as measured by water content ([3]; PP2 3 mg/kg ip 30 minutes before caerulein 20 μg/kg, 6 hours, CER+Veh 81.1±0.8%, control 75.1±0.5%, p<0.05) | morphology of the pancreas (vacuolation, blebbing-like fragmentation, apoptosis, interstitial edema, inflammatory cells; H&E) ([3]; PP2 3 mg/kg ip 30 minutes before caerulein, 6 hours) | basolateral relocation of actin and cortactin in pancreas cryosections ([3]; PP2 3 mg/kg prophylactically) | cortactin phosphorylation (Src; acini pre-incubated with PP2 at 20 μM) | basal relocation of cortactin and actin (pancreatic acini [1]; SU6656 10 μM) | blebbing (pancreatic acini [2]; SU6656 10 μM) | cortactin phosphorylation (Src; acini pre-incubated with SU6656 at 10 μM)
1 | CC(C)(C)n1nc(-c2ccc(Cl)cc2)c2c(N)ncnc21 [PP2] | prevented this basal relocation of cortactin; also recorded: prevented the basal relocation of cortactin | 16.9±6.0% | prevented | adequate to inhibit cortactin phosphorylation | 2.4±0.2 fold | 76.7±0.6% | dramatically prevented these phenomena | prevented this basolateral relocation | completely prevented cortactin phosphorylation |  |  | 
2 | CN(C)S(=O)(=O)c1ccc2c(c1)/C(=C/c1cc3c([nH]1)CCCC3)C(=O)N2 [SU6656] |  |  |  |  |  |  |  |  |  | prevented the basal relocation of cortactin | 21.0±6.0% | completely prevented cortactin phosphorylation
